Reference: patent publication US20050059585A1, “Methionine aminopeptidase-2 inhibitors and methods of use thereof” (Praecis Pharmaceuticals Inc., priority 2000, published 2005)

How the values were obtained:
[1] = system: bovine aortic endothelial cell; assay: bovine aortic endothelial cell growth assay (Baec assay); format: cell-based; conditions: Bos taurus, BAEC; read-out: IC50 (pM), Baec Assay
Experimental: The angiogenesis inhibitor compounds of the invention were tested for their ability to modulate human endothelial cell growth and for their ability to modulate the activity of MetAP2. The MetAP2 enzyme assay was performed essentially as described in Turk, B. et al. (1999) Chem. & Bio. 6: 823-833, the entire contents of which are incorporated herein by reference. The bovine aortic endothelial cell growth assay (Baec assay) was performed essentially as described in Turk, B. et al. (supra), the entire contents of which are incorporated herein by reference.

D10 = assay: Inhibition of GC derived B cell lymphoma lines in culture; format: cell-based; conditions: D10, FL
Ramos = assay: as above; format: cell-based; conditions: Burkitt's lymphoma cell line, 0.01-100 nM
ST486 = assay: as above; format: cell-based
[2] = system: human lymphoblast SR cells; assay: Inhibition of SR cell line in culture, 3H-thymidine incorporation assay; format: cell-based
Experimental: […] Incubations were conducted for 3, 5 or 6 days after which cell proliferation relative to vehicle treatment was determined using a ^3H-thymidine incorporation assay. Medium was replaced and fresh drug was added on day 3 for the 5 and 6 day assays.

SR lymphoma tumor = assay: In vivo efficacy in SR lymphoma cell tumors grown in mice
Experimental: SR lymphoma tumor cells were injected subcutaneously into SCID/NCr female mice. Tumors were measured using a caliper every 3-4 days beginning on day 12 post-implantation of tumor cells. Animals were weighed routinely on the same days as tumor measurments and monitored for clinical signs of any adverse, drug-related side effects. Treatment with Compound 5 or vehicle began on Day 12 for 5 weeks and ended on Day 44. The endpoints evaluated were optimal percent treated/control (% T/C) and tumor growth delay measured at multiple timepoints during the study.

CO[C@@H]1[C@H](OC(=O)N[C@@H](C(N)=O)C(C)C)CC[C@]2(CO2)[C@H]1[C@@]1(C)O[C@@H]1CC=C(C)C [Example 5, (1-Carbamoyl-2-methyl-propyl)-carbamic acid-(3R, 4S, 5S, 6R )-5-methoxy-4-[(2R, 3R)-2-methyl-3-(3-methyl-but-2-enyl)-oxiranyl]-1-oxa-spiro[2.5]oct-6-yl ester]
IC50 [1]: 46 pM | GI50 (D10; B-cell, estimated, read-out: Growth Inhibition Relative to Vehicle Control, GI50%): 0.42 nM | Growth Inhibition Relative to Vehicle Control, Maximum Inhibition (D10; 0.01-100 nM, five or six days): 59% | inhibition of proliferation (in words) (Ramos): inhibited the proliferation of all lymphoma lines tested except for the Ramos line | GI50 (ST486; Homo sapiens, ST486, read-out: Growth Inhibition Relative to Vehicle Control, GI50%): 0.22 nM | Growth Inhibition Relative to Vehicle Control, Maximum Inhibition (ST486; ST486, BL, 0.01-100 nM, five or six days): 53% | GI50 ([2]; Homo sapiens, SR, 5 and 6 day assays): 0.5 nM | inhibition of proliferation of the SR cell line ([2]; concentrations from 1-100 nM, relative to vehicle): 59-75% | Maximal inhibition ([2]; five or six days of exposure): greater than 90% | optimal % T/C (SR lymphoma tumor; oral route, 15 mg/kg): 48% | optimal % T/C (SR lymphoma tumor; oral route, 30 mg/kg): 43% | tumor growth delay (SR lymphoma tumor; orally, 15 mg/kg): 29% | tumor growth delay (SR lymphoma tumor; orally, 30 mg/kg): 28% | tumor growth delay (SR lymphoma tumor; subcutaneous route, 15 mg/kg): 18% | tumor growth delay (SR lymphoma tumor; subcutaneous route, 30 mg/kg): 19% | optimal % T/C (SR lymphoma tumor; subcutaneously, 15 mg/kg): 70% | optimal % T/C (SR lymphoma tumor; subcutaneously, 30 mg/kg): 50%
